From PMC8179358, “An explicitly designed paratope of amyloid-β prevents neuronal apoptosis in vitro and hippocampal damage in rat brain” (Chemical Science, 2020)
*1 amine or outer side, *2 acyl side, *3 side chain or, on linkers, in order; H or OH if unused. Where a SMILES comes first, the peptide text is derived from it. Bridges are numbered along the chain shown (N, C = ends). Roman numbers before positions name the chains, in order. [ ]: non-standard residue; d: D form. X1 = O=C(CCCCC(=O)[*:2])NCCCOCCOCCOCCCNC(=O)CCC(=O)[*:1]; NMeF = CN[C@@H](Cc1ccccc1)C(=O)O; NMeL = CN[C@@H](CC(C)C)C(=O)O; NMeV = CN[C@H](C(=O)O)C(C)C

Legend:
SH-SY5Y cells = test: MTT assay, self-toxicity of SP1; assay type: cell-based, human; conditions: 0.5-10 μM, 24 h
Protocol: 1.3. Methods for in vitro cell-based experiments
The human neuroblastoma cell line SH-SY5Y was obtained from the National Centre for Cell Science (NCCS, Pune, India). The cells were grown in DMEM, and Ham’s F12 nutrient mixture (DMEM/F12; 1:1) supplemented with 10% fetal bovine serum (FBS; Gibco, USA), 50 U/ml penicillin, 100 μg/ml streptomycin and incubated in a humidified atmosphere of 5% CO2 at 37°C. All experiments were carried […]
Each experiment was performed
Methylthiazol tetrazolium (MTT) reduction assay was used to measure the viability of cells.10 The SH-SY5Y cells were seeded at a density of 1.5 × 10^4 cells/well in a 96 well plate. To assess self-toxicity, cells […]
period 20µl of MTT reagent (5mg/ml in DPBS) was added to each well and incubated in a humidified atmosphere of 5% CO2 at 37°C for 4h. Formazan crystals (purple) are formed by the metabolically active cells by cleaving the yellow tetrazolium salt. After the incubation period, the MTT solution was aspirated, and 150µL of dimethyl sulfoxide (DMSO) was added to each well to dissolve the formazan precipitate.

[1] = test system: hippocampal neurons, Aβ40-infused rats; test: Cresyl violet staining of Nissl granules in hippocampal neurons; assay type: in vivo, Sprague-Dawley rats; conditions: intra-hippocampal Aβ40, vs control and sham, P < 0.01, n = 6
Protocol: The overproduction of Aβ damages hippocampal neurons and causes cognitive impairments in AD. […] Cresyl violet staining was performed for identification of Nissl granules in neurons to reveal hippocampal neurodegeneration in this experiment. […]
e. Histopathological experiments for sub-chronic toxicity
Histopathological analysis was carried out on the preserved liver and kidney tissues. The SP1 treated rats and control rats were sacrificed by decapitation after 42 days of treatment schedule. Organs were removed and fixed in 10% buffered neutral formalin for 48 h. The fixed organs were embedded in paraffin wax. Sections were cut by using a microtome with 5-micrometer thickness. Slides were stained with Haematoxylin and eosin (H &E staining) for histological examination. Slides were observed under the light microscope (Dewinter Smart, India)for histopathological changes, and images were taken at […]
The lyophilized Aβ40 peptide was dissolved in artificial cerebrospinal fluid (aCSF: 119mM NaCl, 26.2mm NaHCO3, 2.5mM KCl, 1mM NaH2PO4, 1.3mM MgCl2, 10mM glucose; pH 7.4) solution at a concentration of 1mg/ml for stock and incubated at 37°C for 72 h to induce aggregation. The solution finally kept at 4°C before using it. […]
respective concentrations of SP1were prepared from this stock solution. g. […]

## CC(C)C[C@H](NC(=O)CNC(=O)CCC(=O)NCCCOCCOCCOCCCNC(=O)CCCCC(=O)NCC(=O)N(C)[C@@H](CC(C)C)C(=O)N[C@H](C(=O)N(C)[C@@H](Cc1ccccc1)C(=O)N[C@@H](Cc1ccccc1)C(=O)N[C@@H](C)C(N)=O)C(C)C)C(=O)N(C)[C@H](C(=O)N[C@@H](Cc1ccccc1)C(=O)N(C)[C@@H](Cc1ccccc1)C(=O)N[C@@H](C)C(N)=O)C(C)C [SP1] (I: GL[NMeV]F[NMeF]A-NH2 / II: G[NMeL]V[NMeF]FA-NH2; linker I:N-II:N via X1)
SH-SY5Y cells
  cytotoxicity of SP1 alone: did not observe any discernible cytotoxicity even at the maximum concentrations (10 μM)

## Aβ40: commercially available Aβ40 peptide
[1]
  intensity of Nissl granules, Aβ40 alone: significant (P < 0.01) decrease in the intensity of Nissl granules
